Experimental data reported in US8623325B2, “Azide modified charge sensitive channel proteins” (priority 2008, dated 2014).

Target: T1, E. coli channel protein MscL Gly22Cys (Escherichia coli, UniProt P0A742, G22C)
T1 construct: made in house
Assay: Calcein release from liposomes containing MscL Gly22Cys (self-quenching fluorescent dye)
Type: biochemical
Experimental: MscL-MA was reconstituted into synthetic liposomes composed of azolectin by using a detergent mediated reconstitution method. The incorporation of channels protein in lipid vesicles is describe in detail in WO2005051902 This procedure was performed in the presence of calcein, a self-quenching fluorescent dye. At high local concentrations inside the liposomes, the fluorescence of calcein is low. Release of calcein from liposomes results in dilution of the dye and consequently in a large increase in fluorescence intensity. The labelling and reconstitution was validated by using unlabeled MscL instead of MscL-MA.
The activity of azide labeled Gly22Cys MscL in the liposome was verified with triphenylphosphine (Trisodium triphenylphosphine-3,3′,3″-trisulfonate) at pH 7.2-7.5 at 37° C.
A control experiment was performed using vesicles with unlabelled Gly22Cys MscL and the channel activator MTSET, which is a charged and cysteine-reactive molecule.
MscL-MA has a closed conformation. Calcein can not leave from a vesicle via this closed MscL-MA. To these vesicles MTSET was added. Unlabelled cysteine residues, if present, will react with MTSET and introduce a charge in the channel protein resulting in the opening of the channel and release of fluorescent label. Such residual activation was not observed, showing that a quantitative MA labelling of all cysteines in MscL was obtained (FIG. 7, bottom panel).
In the experimental setting calcein-filled vesicles with MscL-MA are treated with triphenylphosphine at […].
Control experiments are performed using the same calcein filled vesicles with MscL, which is not modified with MA and wherein these unmodified vesicles are treated with triphenylphosphine.

T1 sequence (P0A742 whole entry G22C): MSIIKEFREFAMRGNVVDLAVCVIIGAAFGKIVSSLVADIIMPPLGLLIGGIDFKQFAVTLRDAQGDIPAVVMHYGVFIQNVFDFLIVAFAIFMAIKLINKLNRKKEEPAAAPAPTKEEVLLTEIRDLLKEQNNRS

Row | Compound | calcein release after addition of MTSET (calcein-filled liposomes with unlabelled (unmodified) Gly22Cys MscL) | activation / calcein release after addition of MTSET (vesicles with azide-modified MscL (MscL-MA)) | release from MscL upon contacting with phosphine (MscL modified with compound IX, calcein filled vesicles, pH 7.4)
1 | C[N+](C)(C)CCSS(C)(=O)=O.[Br-] [MTSET] | resulted in calcein release | could not activate the modified MscL | 
2 | CS(=O)(=O)SCCOC(=O)CNC(=O)OCc1ccc(N=[N+]=[N-])cc1 [compound IX] |  |  | significant increase in release
